Experimental data as given in ChEMBL document CHEMBL5385976, “Recognition of arylmethylidene derivatives of imidazothiazolotriazinones as novel tubulin polymerization inhibitors” (RSC Med Chem, 2024).

Assays:
MDA-MB-435 = assay: Antiproliferative activity against human MDA-MB-435 cells assessed as mean cell growth at 10 uM incubated for 48 hrs by SRB assay relative to control; format: functional
[1] = system: Panel NCI-60 (60 carcinoma cell lines); assay: Antiproliferative activity against human panel NCI-60 (60 carcinoma cell lines) incubated for 48 hrs by SRB assay; format: functional
K562 = assay: Inhibition of cell growth in human K562 cells incubated for 72 hrs by MTT assay; format: functional, cell-based; settings: K562, time 72 hrs
HL-60(TB) = assay: Antiproliferative activity against human HL-60(TB) cells assessed as mean cell growth at 10 uM incubated for 48 hrs by SRB assay relative to control; format: functional
[2] = system: Panel NCI-60 (60 carcinoma cell lines); assay: Antiproliferative activity against human panel NCI-60 (60 carcinoma cell lines) assessed as total inhibition of cell growth incubated for 48 hrs by SRB assay; format: functional
Panc02 = assay: Inhibition of cell growth in mouse Panc02 cells incubated for 72 hrs by MTT assay; format: functional
COLO357 = assay: Inhibition of cell growth in human COLO357 cells incubated for 72 hrs by MTT assay; format: functional, cell-based; settings: COLO357, time 72 hrs
NCI-H226 = assay: Antiproliferative activity against human NCI-H226 cells assessed as mean cell growth at 10 uM incubated for 48 hrs by SRB assay relative to control; format: functional
SNB-75 = assay: Antiproliferative activity against human SNB-75 cells assessed as mean cell growth at 10 uM incubated for 48 hrs by SRB assay relative to control; format: functional
UO-31 = assay: Antiproliferative activity against human UO-31 cells assessed as mean cell growth at 10 uM incubated for 48 hrs by SRB assay relative to control; format: functional
DU-145 = assay: Antiproliferative activity against human DU-145 cells assessed as mean cell growth at 10 uM incubated for 48 hrs by SRB assay relative to control; format: functional
NCI-H522 = assay: Antiproliferative activity against human NCI-H522 cells assessed as mean cell growth at 10 uM incubated for 48 hrs by SRB assay relative to control; format: functional
SK-MEL-5 = assay: Antiproliferative activity against human SK-MEL-5 cells assessed as mean cell growth at 10 uM incubated for 48 hrs by SRB assay relative to control; format: functional
SK-OV-3 = assay: Antiproliferative activity against human SK-OV-3 cells assessed as mean cell growth at 10 uM incubated for 48 hrs by SRB assay relative to control; format: functional
MDA-MB-468 = assay: Antiproliferative activity against human MDA-MB-468 cells assessed as mean cell growth at 10 uM incubated for 48 hrs by SRB assay relative to control; format: functional
A498 = assay: Antiproliferative activity against human A498 cells assessed as mean cell growth at 10 uM incubated for 48 hrs by SRB assay relative to control; format: functional

SMILES	Activity (MDA-MB-435) [%]	GI50 [1] [nM]	LC50 [1] [nM]	GI [2] [µM]	further results
CCN1C(=O)N(CC)C2Nn3c(s/c(=C\c4ccccc4)c3=O)=NC21 (configuration not stated)	67	–	–	–	–
CCN1C(=O)N(CC)C2C1NN=c1s/c(=C\c3ccc(F)cc3)c(=O)n12 (configuration not stated)	–	1680	> 97800	>81.3	GI50 (K562): 400 nM; Cell growth relative to control (HL-60(TB)): 21%; GI50 (Panc02): 80 nM; GI50 (COLO357): 80 nM
CCN1C(=O)N(CC)C2C1NN=c1s/c(=C\c3cccc(F)c3)c(=O)n12 (configuration not stated)	23	2450	> 99100	>81.2	GI50 (K562): 80 nM; GI50 (Panc02): 80 nM; GI50 (COLO357): 80 nM
CN1C(=O)N(C)C2C1NN=c1s/c(=C\c3ccc(Cl)cc3Cl)c(=O)n12 (configuration not stated)	–	650	> 100000	>78	GI50 (K562): 80 nM; Cell growth relative to control (HL-60(TB)): 27%; GI50 (Panc02): 80 nM; GI50 (COLO357): 80 nM
CN1C(=O)N(C)C2Nn3c(s/c(=C\c4cccc([N+](=O)[O-])c4)c3=O)=NC21 (configuration not stated)	–	–	–	–	Activity (NCI-H226): 92%
CCN1C(=O)N(CC)C2Nn3c(s/c(=C\c4ccc(Br)cc4)c3=O)=NC21 (configuration not stated)	–	–	–	–	Activity (SNB-75): 95%
CCN1C(=O)N(CC)C2Nn3c(s/c(=C\c4ccccc4Br)c3=O)=NC21 (configuration not stated)	22	2430	> 95000	>53.6	–
COc1ccc(/C=c2\sc3n(c2=O)NC2C(N=3)N(C)C(=O)N2C)cc1 (configuration not stated)	–	–	–	–	Activity (UO-31): 98%
CC(=O)O[C@H]1C(=O)[C@@]2(C)[C@H]([C@H](OC(=O)c3ccccc3)[C@]3(O)C[C@H](OC(=O)[C@H](O)[C@@H](NC(=O)c4ccccc4)c4ccccc4)C(C)=C1C3(C)C)[C@]1(OC(C)=O)CO[C@@H]1C[C@@H]2O [PACLITAXEL]	–	–	–	–	Activity (DU-145): 15%
CCN1C(=O)N(CC)C2C1NN=c1s/c(=C\c3ccc(Br)cc3)c(=O)n12 (configuration not stated)	–	2570	> 100000	>80.5	GI50 (K562): 80 nM; Cell growth relative to control (HL-60(TB)): 19%; GI50 (Panc02): 400 nM; GI50 (COLO357): 80 nM
CN1C(=O)N(C)C2Nn3c(s/c(=C\c4ccc(Br)cc4)c3=O)=NC21 (configuration not stated)	–	–	–	–	Activity (UO-31): 98%
CCN1C(=O)N(CC)C2C1NN=c1s/c(=C\c3ccc([N+](=O)[O-])cc3)c(=O)n12 (configuration not stated)	–	1040	> 98600	>63	GI50 (K562): 400 nM; Cell growth relative to control (HL-60(TB)): 26%; GI50 (Panc02): 400 nM; GI50 (COLO357): 400 nM
CCN1C(=O)N(CC)C2Nn3c(s/c(=C\c4ccc(C(F)(F)F)cc4)c3=O)=NC21 (configuration not stated)	–	–	–	–	Activity (UO-31): 100%
CCN1C(=O)N(CC)C2Nn3c(s/c(=C\c4ccc(F)cc4)c3=O)=NC21 (configuration not stated)	–	–	–	–	Activity (NCI-H522): 101%
CC[C@@]1(O)C(=O)OCc2c1cc1n(c2=O)Cc2cc3ccccc3nc2-1 [CAMPTOTHECIN]	–	–	–	–	Activity (SK-MEL-5): -27%
CN1C(=O)N(C)C2Nn3c(s/c(=C\c4ccccc4F)c3=O)=NC21 (configuration not stated)	69	–	–	–	–
CCN1C(=O)N(CC)C2Nn3c(s/c(=C\c4cccc([N+](=O)[O-])c4)c3=O)=NC21 (configuration not stated)	42	–	–	–	–
CN1C(=O)N(C)C2Nn3c(s/c(=C\c4ccc(C(F)(F)F)cc4)c3=O)=NC21 (configuration not stated)	–	–	–	–	Activity (SNB-75): 102%
COc1cccc2c1C(=O)c1c(O)c3c(c(O)c1C2=O)C[C@@](O)(C(C)=O)C[C@@H]3O[C@H]1C[C@H](N)[C@H](O)[C@H](C)O1 [DAUNORUBICIN]	–	–	–	–	Activity (SK-MEL-5): -28%
COc1ccc(/C=c2\sc3n(c2=O)C2C(NN=3)N(C)C(=O)N2C)cc1 (configuration not stated)	24	7320	> 100000	>83.8	GI50 (K562): 2000 nM; GI50 (Panc02): 400 nM; GI50 (COLO357): 400 nM
CCN1C(=O)N(CC)C2C1NN=c1s/c(=C\c3ccc(OC)cc3)c(=O)n12 (configuration not stated)	–	2280	> 95500	>71.4	GI50 (K562): 400 nM; Cell growth relative to control (HL-60(TB)): 19%; GI50 (Panc02): 16 nM; GI50 (COLO357): 400 nM
CCN1C(=O)N(CC)C2C1NN=c1s/c(=C\c3ccccc3F)c(=O)n12 (configuration not stated)	–	240	> 95500	>63.3	GI50 (K562): 16 nM; Cell growth relative to control (HL-60(TB)): 18%; GI50 (Panc02): 3.2 nM; GI50 (COLO357): 16 nM

SMILES	Activity (MDA-MB-435) [%]	GI50 [1] [nM]	LC50 [1] [nM]	GI [2] [µM]	further results
CN1C(=O)N(C)C2C1NN=c1s/c(=C\c3ccc([N+](=O)[O-])cc3)c(=O)n12 (configuration not stated)	58	–	–	–	–
CN1C(=O)N(C)C2C1NN=c1s/c(=C\c3ccccc3)c(=O)n12 (configuration not stated)	41	–	–	–	–
CN1C(=O)N(C)C2Nn3c(s/c(=C\c4ccc(F)cc4)c3=O)=NC21 (configuration not stated)	–	–	–	–	Activity (SK-OV-3): 103%
COc1cccc2c1C(=O)c1c(O)c3c(c(O)c1C2=O)C[C@@](O)(C(=O)CO)C[C@@H]3O[C@H]1C[C@H](N)[C@H](O)[C@H](C)O1 [DOXORUBICIN]	–	–	–	–	Activity (SK-MEL-5): -20%
CCN1C(=O)N(CC)C2Nn3c(s/c(=C\c4ccc([N+](=O)[O-])cc4)c3=O)=NC21 (configuration not stated)	–	–	–	–	Activity (MDA-MB-468): 67%
CCN1C(=O)N(CC)C2C1NN=c1s/c(=C\c3ccc(C(F)(F)F)cc3)c(=O)n12 (configuration not stated)	–	610	> 96600	>65.4	GI50 (K562): 2000 nM; Cell growth relative to control (HL-60(TB)): 19%; GI50 (Panc02): 2000 nM; GI50 (COLO357): 2000 nM
CN1C(=O)N(C)C2C1NN=c1s/c(=C\c3ccc(F)cc3)c(=O)n12 (configuration not stated)	–	3470	> 97600	>81.5	Cell growth relative to control (HL-60(TB)): 28%
CCN1C(=O)N(CC)C2C1NN=c1s/c(=C\c3cccc([N+](=O)[O-])c3)c(=O)n12 (configuration not stated)	–	2020	> 98700	>83.1	GI50 (K562): 400 nM; Cell growth relative to control (HL-60(TB)): 23%; GI50 (Panc02): 80 nM; GI50 (COLO357): 400 nM
CCN1C(=O)N(CC)C2C1NN=c1s/c(=C\c3ccccc3Br)c(=O)n12 (configuration not stated)	–	920	> 87500	>38.3	Cell growth relative to control (HL-60(TB)): 21%
CN1C(=O)N(C)C2C1NN=c1s/c(=C\c3ccccc3F)c(=O)n12 (configuration not stated)	–	610	> 97600	>75.9	GI50 (K562): 400 nM; Cell growth relative to control (HL-60(TB)): 21%; GI50 (Panc02): 16 nM; GI50 (COLO357): 80 nM
CN1C(=O)N(C)C2Nn3c(s/c(=C\c4ccccc4)c3=O)=NC21 (configuration not stated)	–	–	–	–	Activity (A498): 97%
CCN1C(=O)N(CC)C2Nn3c(s/c(=C\c4ccc(Cl)cc4Cl)c3=O)=NC21 (configuration not stated)	40	–	–	–	–
CN1C(=O)N(C)C2C1NN=c1s/c(=C\c3ccc(C(F)(F)F)cc3)c(=O)n12 (configuration not stated)	26	4210	> 97700	>72.2	–
CN1C(=O)N(C)C2Nn3c(s/c(=C\c4ccc(Cl)cc4Cl)c3=O)=NC21 (configuration not stated)	56	–	–	–	–
CN1C(=O)N(C)C2C1NN=c1s/c(=C\c3cccc([N+](=O)[O-])c3)c(=O)n12 (configuration not stated)	88	–	–	–	–
CN1C(=O)N(C)C2C1NN=c1s/c(=C\c3ccc(Br)cc3)c(=O)n12 (configuration not stated)	29	–	–	–	–
CCN1C(=O)N(CC)C2Nn3c(s/c(=C\c4cccc(F)c4)c3=O)=NC21 (configuration not stated)	65	–	–	–	–
CCN1C(=O)N(CC)C2Nn3c(s/c(=C\c4ccccc4F)c3=O)=NC21 (configuration not stated)	41	–	–	–	–
CCN1C(=O)N(CC)C2Nn3c(s/c(=C\c4ccc(OC)cc4)c3=O)=NC21 (configuration not stated)	48	–	–	–	–
CN1C(=O)N(C)C2Nn3c(s/c(=C\c4ccc([N+](=O)[O-])cc4)c3=O)=NC21 (configuration not stated)	–	–	–	–	Activity (A498): 99%
CCN1C(=O)N(CC)C2C1NN=c1s/c(=C\c3ccccc3)c(=O)n12 (configuration not stated)	–	2290	> 97600	>84.6	GI50 (K562): 80 nM; Cell growth relative to control (HL-60(TB)): 19%; GI50 (Panc02): 80 nM; GI50 (COLO357): 80 nM
